Data published in patent publication US10759794B2, “2-phenyl-3-(piperazinomethyl)imidazo[1,2-A]pyridine derivatives as blockers of task-1 and task-2 channels, for the treatment of sleep-related breathing disorders” (BAYER PHARMA AKTIENGESELLSCHAFT, priority 2015, dated 2020).

Columns and labels:
Format in all cases: cell-based
human TASK-1 [1] = biological target: T1, human TASK-1 (Homo sapiens (Human), UniProt O14649); test: Two-electrode voltage clamp analysis of human TASK-1 channels in Xenopus laevis oocytes
Protocol: (§1) B-1. In Vitro Electrophysiological Analysis of the Human TASK-1 and TASK-3 Channels Via Two-Electrode Voltage Clamp Technique in Xenopus laevis Oocytes
(§2) Xenopus laevis oocytes were selected as described elsewhere in an exemplary manner [Decher et al., FEBS Lett. 492, 84-89 (2001)]. Subsequently, the oocytes were injected with 0.5-5 ng of a cRNA solution coding for TASK-1 or TASK-3. For the electrophysiological analysis of the channel proteins expressed in the oocytes, the two-electrode voltage clamp technique [Stühmer, Methods Enzymol. 207, 319-339 (1992)] was used. The measurements were carried out as described [Decher et al., FEBS Lett. 492, 84-89 (2001)] at room temperature (21-22° C.) using a Turbo TEC 10CD amplifier (NPI), recorded at 2 kHz and filtered with 0.4 kHz. Substance administration was performed using a gravitation-driven perfusion system. Here, the oocyte is located in a measuring chamber and exposed to the solvent stream of 10 ml/min. The level in the measuring chamber is monitored and regulated by sucking off the solution using a peristaltic pump.

human TASK-3 [2] = biological target: T2, human TASK-3 (Homo sapiens (Human), UniProt Q9NPC2); test: Two-electrode voltage clamp analysis of human TASK-3 channels in Xenopus laevis oocytes
Protocol: as §1, §2

human TASK-3 [3] = biological target: T2, human TASK-3; test: Inhibition of recombinant TASK-3 in stably transfected CHO cells (voltage-sensitive dye, FLIPR)
Protocol: (§3) B-2. Inhibition of Recombinant TASK-1 and TASK-3 In Vitro
(§4) The investigations on the inhibition of the recombinant TASK-1 and TASK-3 channels were carried out using stably transfected CHO cells. Here, the compounds according to the invention were tested with administration of 40 mM of potassium chloride in the presence of a voltage-sensitive dye using the method described in detail in the following references [Whiteaker et al., Validation of FLIPR membrane potential dye for high-throughput screening of potassium channel modulators, J. Biomol. Screen. 6 (5), 305-312 (2001); Molecular Devices FLIPR Application Note: Measuring membrane potential using the FLIPR® membrane potential assay kit on Fluorometric Imaging Plate Reader (FLIPR®) systems, http://www.moleculardevices.com/reagents-supplies/assay-kits/ion-channels/flipr-membrane-potential-assay-kits]. The activity of the test substances was determined as their ability to inhibit a depolarization induced in the recombinant cells by 40 mM potassium chloride. The concentration which can block half of this depolarization is referred to as IC50.

human TASK-1 [4] = biological target: T1, human TASK-1; test: Inhibition of recombinant TASK-1 in stably transfected CHO cells (voltage-sensitive dye, FLIPR)
Protocol: as §3, §4

[5] = oocytes, voltage clamp, Table 1B
[6] = oocytes, voltage clamp, comparative compounds, Table 1B
[7] = depolarization induced by 40 mM potassium chloride, Table 2A
[8] = Xenopus laevis oocytes, two-electrode voltage clamp, room temperature, Table 1A
[9] = 40 mM potassium chloride, comparative compounds, Table 2B

T1 sequence (O14649 whole entry): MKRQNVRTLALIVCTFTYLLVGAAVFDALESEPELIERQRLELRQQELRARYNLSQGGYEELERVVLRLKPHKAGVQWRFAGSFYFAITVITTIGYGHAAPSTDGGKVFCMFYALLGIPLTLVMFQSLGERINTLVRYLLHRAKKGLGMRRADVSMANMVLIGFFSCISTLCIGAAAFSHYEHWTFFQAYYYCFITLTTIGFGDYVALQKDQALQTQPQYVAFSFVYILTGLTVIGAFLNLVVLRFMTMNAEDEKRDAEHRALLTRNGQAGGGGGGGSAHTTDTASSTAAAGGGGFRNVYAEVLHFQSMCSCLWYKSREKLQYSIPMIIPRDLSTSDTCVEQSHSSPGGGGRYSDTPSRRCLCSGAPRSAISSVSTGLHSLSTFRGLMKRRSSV
T2 sequence (Q9NPC2 whole entry): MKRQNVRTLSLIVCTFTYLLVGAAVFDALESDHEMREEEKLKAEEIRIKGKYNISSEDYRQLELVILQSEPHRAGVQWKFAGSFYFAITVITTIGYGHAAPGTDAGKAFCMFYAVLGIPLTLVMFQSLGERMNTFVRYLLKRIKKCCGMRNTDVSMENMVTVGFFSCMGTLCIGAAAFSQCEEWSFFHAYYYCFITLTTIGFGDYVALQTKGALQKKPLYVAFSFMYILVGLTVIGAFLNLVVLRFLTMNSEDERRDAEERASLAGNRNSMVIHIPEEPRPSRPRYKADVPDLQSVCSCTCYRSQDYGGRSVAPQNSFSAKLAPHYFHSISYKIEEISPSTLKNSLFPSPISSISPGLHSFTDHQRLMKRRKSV

| SMILES | IC50 (human TASK-3 [3]; [7]) [nM] | IC50 (human TASK-1 [4]; [7]) [nM] | other results |
| --- | --- | --- | --- |
| O=C(c1cnccn1)N1CCN(Cc2c(-c3ccc(Cl)cc3)nc3ccc(C4CC4)cn23)CC1 [drawing 126] | – | – | inhibition at 1 µM (human TASK-1 [1]; [5]): 27.7 ± 4.5%; inhibition at 10 µM (human TASK-1 [1]; [5]): 55.2 ± 1.7%; IC50 (human TASK-1 [1]; [6]): > 1000 nM; inhibition at 1 µM (human TASK-3 [2]; [5]): 8.1 ± 2.6%; inhibition at 10 µM (human TASK-3 [2]; [5]): 48.2 ± 4.3%; IC50 (human TASK-3 [2]; [6]): > 10000 nM |
| O=C(c1ccccc1Cl)N1CCN(Cc2c(-c3ccc(Cl)cc3)nc3ccc(-c4ccccc4)cn23)CC1 [drawing 122] | – | – | inhibition at 1 µM (human TASK-1 [1]; [5]): 6.3 ± 1.4%; inhibition at 10 µM (human TASK-1 [1]; [5]): 16.9 ± 3.2%; IC50 (human TASK-1 [1]; [6]): > 30000 nM; inhibition at 1 µM (human TASK-3 [2]; [5]): 9.3 ± 3.4%; inhibition at 10 µM (human TASK-3 [2]; [5]): 19.4 ± 4.6%; IC50 (human TASK-3 [2]; [6]): > 30000 nM |
| O=C(C1CCCC1)N1CCN(Cc2c(-c3ccc(Cl)cc3)nc3ccccn23)CC1 [Example 2, (4-{[2-(4-Chlorophenyl)imidazo [1,2-a]pyridin-3-yl]methyl}piperazin-1-yl)(cyclopentyl)methanone] | 20 | 63 | IC50 (human TASK-1 [1]; [8]): 2.8 ± 1.1 nM; IC50 (human TASK-3 [2]; [8]): 21.8 ± 2.1 nM |
| O=C(c1ccncc1)N1CCN(Cc2c(-c3ccc(Cl)cc3)nc3ccc(C4CC4)cn23)CC1 [drawing 124] | – | – | inhibition at 1 µM (human TASK-1 [1]; [5]): 47.2 ± 1.5%; inhibition at 10 µM (human TASK-1 [1]; [5]): 49.9 ± 3.3%; IC50 (human TASK-1 [1]; [6]): > 1000 nM; inhibition at 1 µM (human TASK-3 [2]; [5]): 12.1 ± 1.8%; inhibition at 10 µM (human TASK-3 [2]; [5]): 56.1 ± 2.3%; IC50 (human TASK-3 [2]; [6]): > 1000 nM |
| O=C(C1CCCC1)N1CCN(Cc2c(-c3ccc(Br)cc3)nc3ccccn23)CC1 [Example 1, (4-{[2-(4-Bromophenyl)imidazo[,2-a]pyridin-3-yl]methyl}piperazin-1-yl)(cyclopentyl)methanone] | 17 | 77 | IC50 (human TASK-1 [1]; [8]): 7.9 ± 0.5 nM; IC50 (human TASK-3 [2]; [8]): 1.04 ± 0.23 nM |
| CC(C)c1ccc(-c2nc3ccccn3c2CN2CCN(C(=O)C3CCCC3)CC2)cc1 [Example 54] | 225 | 479 | IC50 (human TASK-1 [1]; [8]): 4.3 ± 1.3 nM; IC50 (human TASK-3 [2]; [8]): 38.2 ± 1.4 nM |
| O=C(c1cccc(F)c1)N1CCN(Cc2c(-c3ccc(Cl)cc3)nc3ccc(C4CC4)cn23)CC1 [drawing 123] | – | – | inhibition at 1 µM (human TASK-1 [1]; [5]): 30 ± 3.3%; inhibition at 10 µM (human TASK-1 [1]; [5]): 59.9 ± 1.7%; IC50 (human TASK-1 [1]; [6]): > 1000 nM; inhibition at 1 µM (human TASK-3 [2]; [5]): 29.7 ± 2.6%; inhibition at 10 µM (human TASK-3 [2]; [5]): 56.1 ± 4.6%; IC50 (human TASK-3 [2]; [6]): > 1000 nM |
| COc1ccc(C)c(C(=O)N2CCN(Cc3c(-c4ccc(C(C)(C)C)cc4)nc4ccccn34)CC2)n1 [Example 73] | 17 | 170 | – |
| O=C(c1ccncc1)N1CCN(Cc2c(-c3ccc(Cl)cc3)nc3ccc(C4CC4)cn23)CC1 [WO 2014/187922 Example 196, reference compound] | – | – | IC50 (human TASK-3 [3]; [9]): 30000 nM; IC50 (human TASK-1 [4]; [9]): 30000 nM |
| Cc1ccc(-c2nc3ccccn3c2CN2CCN(C(=O)C3CCCC3)CC2)cc1 [Example 56] | 700 | 642 | – |
| O=C(c1cnccn1)N1CCN(Cc2c(-c3ccc(Cl)cc3)nc3ccc(C4CC4)cn23)CC1 [WO 2014/187922 Example 263, reference compound] | – | – | IC50 (human TASK-3 [3]; [9]): 5700 nM; IC50 (human TASK-1 [4]; [9]): 30000 nM |
| O=C(c1cccc(F)c1)N1CCN(Cc2c(-c3ccc(Cl)cc3)nc3ccc(C4CC4)cn23)CC1 [WO 2014/187922 Example 178, reference compound] | – | – | IC50 (human TASK-3 [3]; [9]): 4800 nM; IC50 (human TASK-1 [4]; [9]): 30000 nM |
| COc1cccc(-c2nc3ccccn3c2CN2CCN(C(=O)C3CCC3)CC2)c1 [drawing 125] | – | – | inhibition at 1 µM (human TASK-1 [1]; [5]): 49.6 ± 6.7%; inhibition at 10 µM (human TASK-1 [1]; [5]): 75 ± 3.5%; IC50 (human TASK-1 [1]; [6]): > 1000 nM; inhibition at 1 µM (human TASK-3 [2]; [5]): 34.6 ± 2.7%; inhibition at 10 µM (human TASK-3 [2]; [5]): 73.6 ± 3.7%; IC50 (human TASK-3 [2]; [6]): > 1000 nM |
| O=C(C1CCC1)N1CCN(Cc2c(-c3ccc(Cl)cc3)nc3ccccn23)CC1 [Example 18] | 120 | 242 | – |
| O=C(C1CCC1)N1CCN(Cc2c(-c3ccc(F)cc3)nc3ccccn23)CC1 [Example 49] | 1700 | 1830 | – |
| CC(C)(C)c1ccc(-c2nc3ccccn3c2CN2CCN(C(=O)C3CCCC3)CC2)cc1 [Example 66] | 830 | 1500 | – |

More lines, main results first:

| IC50 (human TASK-3 [3]; [7]) [nM] | IC50 (human TASK-1 [4]; [7]) [nM] | SMILES | other results |
| --- | --- | --- | --- |
| 141 | 490 | COc1cccc(C(=O)N2CCN(Cc3c(-c4ccc(C(C)C)cc4)nc4ccccn34)CC2)n1 [Example 55] | IC50 (human TASK-1 [1]; [8]): 45 ± 6.7 nM; IC50 (human TASK-3 [2]; [8]): 79.6 ± 10.8 nM |
| 18 | 140 | COc1cccc(C(=O)N2CCN(Cc3c(-c4ccc(Br)cc4)nc4ccccn34)CC2)n1 [Example 47] | IC50 (human TASK-1 [1]; [8]): 4.9 ± 0.4 nM; IC50 (human TASK-3 [2]; [8]): 2.3 ± 0.3 nM |
| 46 | 172 | O=C(c1ccccc1F)N1CCN(Cc2c(-c3ccc(Br)cc3)nc3ccccn23)CC1 [Example 4, (4-{[2-(4-Bromophenyl)imidazo [1,2-a]pyridin-3-yl]methyl}piperazin-1-yl)(2-fluorophenyl)methanone] | IC50 (human TASK-1 [1]; [8]): 9.7 ± 0.9 nM; IC50 (human TASK-3 [2]; [8]): 15 ± 2.1 nM |
| 430 | 800 | COc1cccc(C(=O)N2CCN(Cc3c(-c4ccc(C)cc4)nc4ccccn34)CC2)n1 [Example 59] | – |
| 120 | 590 | COc1ccc(F)c(C(=O)N2CCN(Cc3c(-c4ccc(Cl)cc4)nc4ccccn34)CC2)c1 [Example 27] | – |
| 110 | 304 | O=C(c1cc(F)ccc1Cl)N1CCN(Cc2c(-c3ccc(Cl)cc3)nc3ccccn23)CC1 [Example 16] | – |
| 160 | 685 | Cc1ccc(F)cc1C(=O)N1CCN(Cc2c(-c3ccc(Cl)cc3)nc3ccccn23)CC1 [Example 23] | – |
| 1400 | 1620 | COc1ccc(F)cc1C(=O)N1CCN(Cc2c(-c3ccc(F)cc3)nc3ccccn23)CC1 [Example 50] | – |
| 28 | 139 | COc1cccc(C(=O)N2CCN(Cc3c(-c4ccc(Cl)cc4)nc4ccccn34)CC2)n1 [Example 3, (4-{[2-(4-Chlorophenyl)imidazo [1,2-a]pyridin-3-yl]methyl}piperazin-1-yl)(6-methoxypyridin-2-yl)methanone] | IC50 (human TASK-1 [1]; [8]): 4.2 ± 0.6 nM; IC50 (human TASK-3 [2]; [8]): 27.9 ± 4 nM |
| 590 | 708 | O=C(c1ccccn1)N1CCN(Cc2c(-c3ccc(Cl)cc3)nc3ccccn23)CC1 [Example 26] | – |
| 52 | 305 | COc1ccccc1C(=O)N1CCN(Cc2c(-c3ccc(Cl)cc3)nc3ccccn23)CC1 [Example 20] | – |
| 99 | 1200 | COc1ccc(Cl)c(C(=O)N2CCN(Cc3c(-c4ccc(Cl)cc4)nc4ccccn34)CC2)c1 [Example 29] | – |
| 1300 | 2100 | CC(C)Oc1cccc(C(=O)N2CCN(Cc3c(-c4ccc(Cl)cc4)nc4ccccn34)CC2)c1 [Example 31] | – |
| 770 | 1000 | COc1cc(C)cc(C(=O)N2CCN(Cc3c(-c4ccc(Cl)cc4)nc4ccccn34)CC2)n1 [Example 40] | – |
| 450 | 510 | COc1cccc(C(=O)N2CCN(Cc3c(-c4ccc(C(C)(C)C)cc4)nc4ccccn34)CC2)n1 [Example 64] | – |
| 1900 | 1910 | COc1ccccc1C(=O)N1CCN(Cc2c(-c3ccc(C)cc3)nc3ccccn23)CC1 [Example 58] | – |
| 71 | 409 | COc1ccccc1C(=O)N1CCN(Cc2c(-c3ccc(Br)cc3)nc3ccccn23)CC1 [Example 12] | – |
| 1000 | 1890 | O=C(c1cc(F)ccc1Cl)N1CCN(Cc2c(-c3ccc(F)cc3)nc3ccccn23)CC1 [Example 51] | – |
| 5.2 | 93 | COc1ccc(F)c(C(=O)N2CCN(Cc3c(-c4ccc(Cl)cc4)nc4ccccn34)CC2)n1 [Example 68, (4-{[2-(4-Chlorophenyl)imidazo[1,2-a]pyridin-3-yl]methyl}piperazin-1-yl)(3-fluoro-6-methoxypyridin-2-yl)methanone] | – |
| 560 | 1160 | COc1ccccc1C(=O)N1CCN(Cc2c(-c3ccc(F)cc3)nc3ccccn23)CC1 [Example 52] | – |
| 14 | 510 | CCOc1ccccc1C(=O)N1CCN(Cc2c(-c3ccc(Cl)cc3)nc3ccccn23)CC1 [Example 28] | – |
| 380 | 827 | COc1cccc(C(=O)N2CCN(Cc3c(-c4ccc(Br)cc4)nc4ccccn34)CC2)c1 [Example 5, (4-{[2-(4-Bromophenyl)imidazo[1,2-a]pyridin-3-yl]methyl}piperazin-1-yl)(3-methoxyphenyl)methanone] | – |
| 300 | 515 | COc1cccc(C(=O)N2CCN(Cc3c(-c4ccc(Cl)cc4)nc4ccccn34)CC2)c1 [Example 19] | – |
| 10 | 220 | COc1ccc(Cl)c(C(=O)N2CCN(Cc3c(-c4ccc(Cl)cc4)nc4ccccn34)CC2)n1 [Example 43] | – |
